Results on three molecules are retold here after patent US20090028798A1, “METHOD FOR DETERMINING REDOX STATUS OF A TISSUE” (Government of the USA, represented by the Secretary, …, priority 2005, published 2009).

Marks after values point to notes of the source that are not given here.

The nature of data set [1]: Relaxation time and relaxivity of nitroxyl contrast agents compared with Gd-DTPA. The data set is classed as physicochemical. The text has this: The present invention is predicated on the difference in reducing capability and provides a method of determining the redox status of a region of interest in an animal tissue, such as a tumor. By determining the redox status of a tumor it is possible to not only diagnose a tumor due to its enhanced reduction of intracellular nitroxide contrast agent, but also to determine appropriate radiation treatment fields spatially to deliver therapeutic doses of radiation, and to determine appropriate timing sequences after the administration of a nitroxide contrast agent such that the maximum difference between normal and tumor tissue with respect to the radioprotective form of the nitroxide is present in the normal tissue, thereby limiting collateral damage to the normal tissue. The T1-contrast afforded by the nitroxide class of compounds, by virtue of their paramagnetic relaxivity which is in the range of 0.2 (mM s)−1 makes it possible to use standard MRI scanners to obtain the redox information in the inventive method. Typical relaxivity and relaxation times are shown for various nitroxyl contrast agents compared with a standard contrast agent, Gd-DTPA, in Table 1. […] Without being bound to any particular theory, it is believed that the T1 relaxation of protons could be affected by paramagnetic electron spin. Therefore, a change of MRI contrast before and after administration of a nitroxyl spin probe (i.e., a nitroxide contrast agent) should reflect the amount of nitroxyl in addition to providing anatomical mapping simultaneously. Such anatomical mapping provides the ability to diagnose the existence of a tumor, determine the status of a tumor, determine borders of a radiation treatment field, determine appropriate timing and dosage for radiation treatment, as well as determining the efficacy of radiation and other forms of cancer treatment.

Data set [2] in a line: Decay rate of nitroxyl contrast agent by 300 MHz CW EPR imaging (EPRI). The data set is classed as in vivo, C3H mice. Conditions: 1.8 μmol/g b.w. i.v., mean ± SD. The method, then: (§1) Female C3H mice were supplied by the Frederick Cancer Research Center, Animal Production (Frederick, Md.). Animals, received at six weeks of age, were housed five per cage in climate controlled circadian rhythm-adjusted rooms and were allowed food and water ad libitum. Experiments were carried out in compliance with the Guide for the Care and Use of Laboratory Animal Resources (1996), National Research Council, and approved by the National Cancer Institute Animal Care and Use Committee. Experiments were performed within 4 weeks of their arrival at the facility. Their body weight measured before the experiments was in the range 25-28 g. A squamous cell carcinoma was implanted and grown on the right hind leg for a week.
Mice were anesthetized by isoflurane (1.5%) in medical air (700 mL/min). Both tumor and normal legs were placed on special mouse holder and fixed with adhesive tapes on the divider between both legs. […]
The EPRI and MRI data were analyzed using the ImageJ software package (a public domain Java image processing program inspired by NIH Image that can be extended by plug-ins, http://rsb.info.nih.gov/ij/). T1 and T2 mappings were calculated using a plug-in (MRI analysis calculator, Karl Schmidt, HypX Laboratory, Brigham and Women's Hospital) available in ImageJ.
A time course of CW EPR imaging after injection of a nitroxyl contrast agent was determined. […]

Data set [3] is described as follows: Decay rate of nitroxyl contrast agent by in vivo 700 MHz EPR spectroscopy with surface coil (EPRS). Also noted: species or system C3H mice. Particulars: linear part 7.5-20 min, mean ± SD. The method, then: as §1
In vivo EPR spectroscopic measurement of the nitroxyl probe were obtained. Mice were anesthetized and placed on special mouse holder and fixed with adhesive tapes. The single loop surface coil (7.3 mm i.d.) was placed on the normal or the tumor leg. EPR signal was measured by CW EPR at 700 MHz. EPR conditions were as follows: microwave frequency=700 MHz, microwave power=10 mW, field modulation frequency=13.5 kHz, field modulation amplitude=0.3 Gauss, time constant=0.03 s, sweep width=60 Gauss, scan time=8 s. The center line of the triplet was repeatedly obtained every 20 s for 20 min. […]

Data set [4] in a line: Decay rate of nitroxyl contrast agent by 4.7 T SPGR T1-weighted MRI. The class given is in vivo, C3H mice. Conditions: 1.5 μmol/g b.w. i.v., mean ± SD. The method, then: as §1
MRI and pulse sequence measurements were also obtained. MRI measurements were performed at 4.7 T controlled with ParaVision®3.0.1 (Bruker BioSpin MRI GmbH, Rheinstetten, Germany). […]
The EPRI and MRI data were analyzed using the ImageJ software package (a public domain Java image processing program inspired by NIH Image that can be extended by plug-ins, http://rsb.info.nih.gov/ij/). T1 and T2 mappings were calculated using a plug-in (MRI analysis calculator, Karl Schmidt, HypX Laboratory, Brigham and Women's Hospital) available in ImageJ. […]

Data set [5] can be described thus: Nitroxyl radical decay rate in tissues, from change in MRI contrast over time. Conditions: for Decay Rate: MRI, mean ± SD. The class given is in vivo, mice. The method, then:
In the inventive method, the amount of reduced nitroxyl contrast agent (i.e., hydroxylamine) in the animal tissue is determined. This determination can be made using any suitable method. For example, MRI contrast changes and the difference in concentration of a nitroxyl contrast agent, such as 3CP, show linearity in low concentration level (i.e., below 1.5 mM). To perform T1 and T2 mapping, spin echo images can be obtained using a multi-slice multi-echo (MSME) sequence. For instance, a time sequence of the total number of SPGR images may be determined. The images can then be averaged and each image may be divided by the averaged initial image. Semi-logarithmic values of the averaged image intensity in a given region of interest can be plotted versus time after injection. The change in intensity can be determined at one or more time points after injection of a nitroxyl contrast agent. For example, changes in intensity may be made every 10 s, 20 s, 30, 40 s, 50 s, or every 1, 5, 7, 10, 15, 20 minutes, or any integer in between, after injection of a nitroxyl contrast agent. A decay rate can be obtained from the linear part of the slope after peak by the least squares method. A sample calculation of a decay rate using nitroxyl contrast agent 3CP is as follows: The spoiled gradient echo (SPGR) image intensity Mt at time t after nitroxyl contrast agent injection can be calculated using the equation:
Mt=M0×[1−EXP(−TR/T1t)]×EXP(−TE/T2)×{sin α/[1−cos α×EXP(−TR/T1t)]}.
In the above equation, MO is proton density, and a is flip angle. Tissue (or sample) T1 can change with particular time t (min.) (T1t) depending on the concentration of the 3CP (Ct). T1t[…]1/R1t and R1t=1/T1i+r1×Ct, where R1t is T1 relaxation […] t, the relaxivity r1 of 3CP is 0.17 mM^−1s-1, T1i is the initial T1 base line (intrinsic tissue T1). Ct (mM), which is the first concentration of 3CP at particular time t (min.), is calculated by assuming first order decay as indicated by the equation Ct=Cmax×EXP([…]), where ktrue is the given decay rate. Logarithmic values of the intensity change from the baseline (ie. ΔM % t=(Mt/Mi−1)×100 or ΔMt=Mt−Mi), can be plotted with time t. Mi is the intrinsic signal intensity of the tissue (or sample) calculated as Ct=0. The decay constant kMRI can be obtained from the slopes of the plots ΔM % t and ΔMt by least square fit.
Typical decay rates, determined by a change in intensity over time, are shown in Table 1 and FIG. 1 for nitroxyl contrast agents Tempol, Carbamoyl-PROXYL, Carboxyl-PROXYL in normal tissue, tumor, blood, and left and right kidney tissues. These decay rates may then be used to determine the redox status of the tissue. When a decay rate is calculated pixel-wise, redox mapping can be obtained. That is, regions showing a faster rate of decay correspond to hypoxic regions.

On to `CC1(C)CC(C(N)=O)C(C)(C)N1[O]` (stereo not drawn) [Carbamoyl-PROXYL, 3-carbamoyl-2,2,5,5-tetramethyl-1-pyrrolidine-N-oxyl], for which the Relaxivity in data set [1] was 0.171 mM⁻¹ s⁻¹. The “relaxivity r1” value in data set [1] (value used in sample decay-rate calculation) is 0.17 mM⁻¹ s⁻¹. For the same molecule, the “Normal Leg Decay Rate” value in data set [2] (normal leg) is 0.0356 ± 0.0122 min⁻¹; in data set [3] (normal leg) it was 0.0551 ± 0.0059 min⁻¹; in data set [4] (normal leg) it was 0.0766 ± 0.0070 min⁻¹. For the same molecule, the “Tumor Leg Decay Rate” value in data set [2] (squamous cell carcinoma leg) was 0.0468 ± 0.0086 min⁻¹; in data set [3] (squamous cell carcinoma leg) it was 0.0669 ± 0.0144* min^−1; in data set [4] (squamous cell carcinoma leg), 0.1073 ± 0.0057* min^−1.

The molecule `CC1(C)CC(C(=O)O)C(C)(C)N1[O]` (stereo not drawn) [Carboxy-PROXYL] gave a Relaxivity in data set [1] of 0.180 mM⁻¹ s⁻¹.

As to `CC1(C)CC(O)CC(C)(C)N1[O]` [Tempol, 2,2,6,6-tetramethyl-4-piperidinol-N-oxyl], the “Decay Rate” value was 1.025 ± 0.213 min⁻¹ in data set [5] (Blood); 1.470 ± 0.199 min⁻¹ in data set [5] (Left Kidney); 0.319 ± 0.025 min⁻¹ in data set [5] (Normal Leg); 1.160 ± 0.333 min⁻¹ in data set [5] (Right Kidney); 1.095 ± 0.203** min^−1 in data set [5] (Tumor Leg). Also, the “rate of decay, tumor versus normal tissue” value in data set [5] (in vivo MRI, FIG. 2) is recorded as “greater in tumor versus normal tissue”.
